Results taken from the supplement of paper PMC10307832.

Legend:
Assay in all cases: relative viability (nuclei count vs DMSO), 5 days (fraction); higher = more cells survive
XMD8-85 + Pemetrexed = compound: CN1CCN(CC1)C2=CC(=C(C=C2)NC3=NC=C4C(=N3)N(C5=CC=CC=C5C(=O)N4C)C)OC [XMD8-85] + Nc1nc2[nH]cc(CCc3ccc(C(=O)N[C@@H](CCC(=O)O)C(=O)O)cc3)c2c(=O)[nH]1 [Pemetrexed] (partner 0.2 µM)
Method in brief: (§1)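 Lung cancer cell lines were pin-tool dosed in 1536-well plates on the day after seeding, with either a lone drug or a fixed anchor-drug dose plus five library-drug doses (not always all listed) in √10 steps. Nuclei were counted on 4× images after 5 days. Relative viability is the ratio of treated-well to vehicle-well nuclei counts, with each value a median of duplicate plates.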

XMD8-85 + Palbociclib = compound: CN1CCN(CC1)C2=CC(=C(C=C2)NC3=NC=C4C(=N3)N(C5=CC=CC=C5C(=O)N4C)C)OC [XMD8-85] + CC(=O)c1c(C)c2cnc(Nc3ccc(N4CCNCC4)cn3)nc2n(C2CCCC2)c1=O [Palbociclib] (partner 0.5 µM)
Method in brief: as §1

4EGI-1 + Decitabine = compound: O=C(O)C(Cc1ccccc1[N+](=O)[O-])=NNc1nc(-c2ccc(Cl)c(Cl)c2)cs1 (mixture of isomers) [4EGI-1] + Nc1ncn([C@H]2C[C@H](O)[C@@H](CO)O2)c(=O)n1 [Decitabine] (partner 2 µM)
Method in brief: as §1

4EGI-1 + Alpelisib = compound: O=C(O)C(Cc1ccccc1[N+](=O)[O-])=NNc1nc(-c2ccc(Cl)c(Cl)c2)cs1 (mixture of isomers) [4EGI-1] + Cc1nc(NC(=O)N2CCC[C@H]2C(N)=O)sc1-c1ccnc(C(C)(C)C(F)(F)F)c1 [Alpelisib] (partner 2 µM)
Method in brief: as §1

| Cell Line | relative viability (XMD8-85 + Pemetrexed; first compound 0.08 µM) | relative viability (XMD8-85 + Pemetrexed; first compound 0.253 µM) | relative viability (XMD8-85 + Pemetrexed; first compound 0.8 µM) | relative viability (XMD8-85 + Pemetrexed; first compound 2.53 µM) | relative viability (XMD8-85 + Pemetrexed; first compound 8 µM) | relative viability (XMD8-85 + Palbociclib; first compound 0.08 µM) | relative viability (XMD8-85 + Palbociclib; first compound 0.253 µM) | relative viability (XMD8-85 + Palbociclib; first compound 0.8 µM) | relative viability (XMD8-85 + Palbociclib; first compound 2.53 µM) | relative viability (XMD8-85 + Palbociclib; first compound 8 µM) | relative viability (4EGI-1 + Decitabine; first compound 0.5 µM) | relative viability (4EGI-1 + Decitabine; first compound 5 µM) | relative viability (4EGI-1 + Decitabine; first compound 15.81 µM) | relative viability (4EGI-1 + Decitabine; first compound 50 µM) | relative viability (4EGI-1 + Alpelisib; first compound 0.5 µM) | relative viability (4EGI-1 + Alpelisib; first compound 1.581 µM) | relative viability (4EGI-1 + Alpelisib; first compound 5 µM) | relative viability (4EGI-1 + Alpelisib; first compound 50 µM) | relative viability (4EGI-1 + Alpelisib; first compound 15.81 µM) | relative viability (4EGI-1 + Decitabine; first compound 1.581 µM) |
| --- | --- | --- | --- | --- | --- | --- | --- | --- | --- | --- | --- | --- | --- | --- | --- | --- | --- | --- | --- | --- |
| PC-3 [JPC-3] | 1.21 | 0.928 | 1.1 | 1.27 | 0.452 | 0.489 | 0.539 | 0.551 | 0.583 | 0.564 | 0.95 | 0.771 | 0.498 | 0.53 | 1.09 | 0.97 | 0.979 | 0.884 |  |  |
| PC-14 | 0.114 | 0.144 | 0.126 | 0.116 | 0.101 | 0.552 | 0.44 | 0.596 | 0.404 | 0.167 | 0.227 | 0.222 | 0.13 | 0.0662 | 1.05 |  | 0.906 | 0.941 |  |  |
| RERF-LC-KJ | 0.46 | 0.478 | 0.484 | 0.497 | 0.43 | 1.09 | 1.13 | 1.18 | 1.23 | 0.768 | 0.828 | 0.609 | 0.444 | 0.285 | 0.924 |  | 0.728 | 0.659 | 0.677 |  |
| SK-LU-1 | 0.973 | 0.916 | 0.966 | 1.1 | 0.851 | 0.358 | 0.364 | 0.392 | 0.356 | 0.385 | 0.682 | 0.653 | 0.48 | 0.367 | 1.23 | 1.01 | 1.26 | 0.232 | 0.806 | 0.65 |
